Test results from ChEMBL document CHEMBL1926526, “Mefloquine-oxazolidine derivatives, derived from mefloquine and arenecarbaldehydes: In vitro activity including against the multidrug-resistant tuberculosis strain T113” (Bioorg Med Chem, 2012).

How the values were obtained:
[1] = test system: Mycobacterium tuberculosis; assay: Antimycobacterial activity against Mycobacterium tuberculosis H37Rv ATCC 27294 by alamar blue assay; type: functional
[2] = Cytotoxicity against mouse macrophages assessed as cell viability at 1 uM after 18 hrs by MTT assay; type: cell-based, Macrophage; settings: read-out: Activity
[3] = Cytotoxicity against mouse macrophages assessed as cell viability at 100 uM after 18 hrs by MTT assay; type: cell-based, Macrophage; settings: read-out: Activity
[4] = test system: Mycobacterium tuberculosis; assay: Ratio of mefloquine MIC to compound MIC for Mycobacterium tuberculosis H37Rv ATCC 27294 by alamar blue assay; type: functional
[5] = Cytotoxicity against mouse macrophages assessed as cell viability at 10 uM after 18 hrs by MTT assay; type: cell-based, Macrophage; settings: read-out: Activity

| SMILES | MIC [1] [µM] | viability at 18 h, 1 µM [2] [%] | viability at 18 h, 100 µM [3] [%] | Ratio [4] | viability at 18 h, 10 µM [5] [%] |
| --- | --- | --- | --- | --- | --- |
| O=[N+]([O-])c1ccc(C2O[C@@H](c3cc(C(F)(F)F)nc4c(C(F)(F)F)cccc34)[C@H]3CCCCN23)s1 (mixture of isomers) | 12.1 | 100 | 100 | 2.7 | 100 |
| FC(F)(F)c1cc([C@@H]2OC(c3cccc(Cl)c3Cl)N3CCCC[C@H]23)c2cccc(C(F)(F)F)c2n1 (mixture of isomers) | > 250 | 100 | 100 | – | 100 |
| FC(F)(F)c1cc([C@@H]2OC(c3ccc(Cl)c(Cl)c3)N3CCCC[C@H]23)c2cccc(C(F)(F)F)c2n1 (mixture of isomers) | > 250 | 100 | 100 | – | 100 |
| FC(F)(F)c1cc([C@@H]2OC(c3ccc(Cl)cc3Cl)N3CCCC[C@H]23)c2cccc(C(F)(F)F)c2n1 (mixture of isomers) | > 250 | 100 | 98 | – | 100 |
| FC(F)(F)c1cc([C@@H]2OC(c3c(Cl)cccc3Cl)N3CCCC[C@H]23)c2cccc(C(F)(F)F)c2n1 (mixture of isomers) | > 250 | 93 | 59 | – | 92 |
| COc1cccc(C2O[C@@H](c3cc(C(F)(F)F)nc4c(C(F)(F)F)cccc34)[C@H]3CCCCN23)c1OC (mixture of isomers) | 11.9 | 100 | 100 | 2.8 | 100 |
| CCOc1cccc(C2O[C@@H](c3cc(C(F)(F)F)nc4c(C(F)(F)F)cccc34)[C@H]3CCCCN23)c1 (mixture of isomers) | 24.5 | 100 | 95 | – | 100 |
| COc1cc(C2O[C@@H](c3cc(C(F)(F)F)nc4c(C(F)(F)F)cccc34)[C@H]3CCCCN23)cc(OC)c1OC (mixture of isomers) | 22.5 | 100 | 97 | – | 100 |
| O=[N+]([O-])c1ccc(C2O[C@@H](c3cc(C(F)(F)F)nc4c(C(F)(F)F)cccc34)[C@H]3CCCCN23)o1 (mixture of isomers) | 99.8 | 100 | 100 | – | 100 |
| FC(F)(F)c1cc([C@@H]2OC(c3ncc[nH]3)N3CCCC[C@H]23)c2cccc(C(F)(F)F)c2n1 (mixture of isomers) | 27.4 | 100 | 100 | – | 100 |
| OC(c1cc(C(F)(F)F)nc2c(C(F)(F)F)cccc12)C1CCCCN1 (stereo not given) [MEFLOQUINE] | – | 95 | 70 | – | 81 |
